pIC50: −log10 of the molar value.
Target: T1, Dnmt3a (Mus musculus, UniProt O88508)
T1 construct: C-terminal catalytic domain (Dnmt3a-C)
Assay: Biotin-avidin DNA methylation kinetics assay with [methyl-3H]AdoMet, purified Dnmt3a-C
Type: biochemical

T1 sequence (O88508 608-908 limits assumed): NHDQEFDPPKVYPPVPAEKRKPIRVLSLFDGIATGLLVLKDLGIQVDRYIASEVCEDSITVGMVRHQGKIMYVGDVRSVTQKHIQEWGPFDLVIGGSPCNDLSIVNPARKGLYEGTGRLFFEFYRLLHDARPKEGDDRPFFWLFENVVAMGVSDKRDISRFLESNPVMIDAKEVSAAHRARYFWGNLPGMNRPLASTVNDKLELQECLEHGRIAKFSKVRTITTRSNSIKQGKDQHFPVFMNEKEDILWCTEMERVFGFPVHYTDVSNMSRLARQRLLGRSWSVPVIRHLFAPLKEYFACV

Work on COC(=O)[C@]1(OC(=O)/C=C/c2ccc(O)c(O)c2)C[C@H](OC(=O)/C=C/c2ccc(O)c(O)c2)[C@H]2O[C@@](C)(OC)[C@](C)(OC)O[C@@H]2C1 [N12, 1,3-dicaffeoyl-muco-quinic acid diacetal] yielded a pIC50 of 4.46.

Source: PMC3102611, “The inhibition of the mammalian DNA methyltransferase 3a (Dnmt3a) by dietary black tea and coffee polyphenols” (2011)
